The text below walks through data of US5348949A, “Method of preparing N-oxo-tetrahydro-β-carbolines” (Duphar International Research B.V., priority 1989, dated 1994).

Data set [1] in a line: in vitro. Particulars: rabbit, primary rabbit kidney cells.
Data set [2] in a line: in vitro. Particulars: dog, mdck.
The test system of data set [3] is influenza virus A (Ishikawa). In words: microbe, parasite or virus in culture. It counts as cell-based. Particulars: unidentified influenza virus, read-out: MIC influenza virus A (Ishikawa).
In a further data set the test system is Coxsasckie virus B4. In words: inhibition of virus induced cytopathogenicity, Vero cells, Coxsackie virus B4. Particulars: Enterovirus B. It counts as cell-based. The procedure:
(§1) Antiviral activity of some eudistomin derivatives was determined in a large number of in-vitro assays as described in reference 9. These tests are all based on the inhibition of virus induced cytopathogenicity. Depending upon the virus studied, different cell cultures were used. […] New compound 67 has the additional advantage of a 10-fold higher potency as compared with known compound 63.

Another data set deals with Coxsackie virus B4. Nature of the data set: inhibition of virus induced cytopathogenicity, Hela cells, Coxsackie virus B4. It counts as cell-based. Particulars: Enterovirus B. The procedure:
as §1

A further data set relates to Sindbis virus. In words: inhibition of virus induced cytopathogenicity, Vero cells, Sindbis virus. It is filed as cell-based. The procedure: as §1
In a further data set the test system is parainfluenza-3 virus. In words: inhibition of virus induced cytopathogenicity, Vero cells, parainfluenza-3 virus. It is filed as cell-based. The protocol: as §1
Data set [4] relates to Respiratory syncytial virus (Lung). Nature of the data set: inhibition of virus induced cytopathogenicity, Hela cells, respiratory syncytial virus (Lung). It is filed as cell-based. Particulars: human respiratory syncytial virus. The protocol:
as §1

Another data set concerns Reovirus-1. In words: inhibition of virus induced cytopathogenicity, Vero cells, Reovirus-1. It counts as cell-based. The protocol:
as §1

A short description of data set [5]: in vitro. Particulars: human, hela cells.
The next data set has as its system Vaccinia virus. In words: microbe, parasite or virus in culture. Particulars: Orthopoxvirus vaccinia, read-out: MIC Vaccinia virus. It counts as cell-based.
Data set [6] deals with Herpes simplex virus-2 (Lyons). It counts as cell-based. Particulars: Human alphaherpesvirus 2; PRK cells. The procedure: as §1
Data set [7] has as its system Herpes simplex virus-1 (F). It counts as cell-based. Particulars: Human alphaherpesvirus 1; PRK cells. The procedure: as §1
The subject of data set [8] is Herpes simplex virus-1 (McInyre). It is filed as cell-based. Particulars: Human alphaherpesvirus 1; PRK cells. The protocol:
as §1

The test system of data set [9] is Herpes simplex virus-1 (KOS). It counts as cell-based. Particulars: Human alphaherpesvirus 1; PRK cells. The procedure:
as §1

Data set [10] relates to Herpes simplex virus-2 (196). It counts as cell-based. Particulars: Human alphaherpesvirus 2; PRK cells. The protocol: as §1
Data set [11] relates to Herpes simplex virus-2 (G). It counts as cell-based. Particulars: Human alphaherpesvirus 2; PRK cells. The protocol: as §1
A short description of data set [12]: in vitro. Particulars: monkey, vero cells.
In a further data set the test system is Polio virus. In words: microbe, parasite or virus in culture. Particulars: read-out: MIC Polio virus. It is filed as cell-based.
Another data set has as its system Semliki forest virus. Nature of the data set: inhibition of virus induced cytopathogenicity, Vero cells, Semliki forest virus. It is filed as cell-based. The protocol:
as §1

For data set [13], the system named is influenza virus B (Singapore). In words: microbe, parasite or virus in culture. It is filed as cell-based. Particulars: unidentified influenza virus, read-out: MIC influenza virus B (Singapore).
A further data set concerns 22 antiviral test models. Nature of the data set: 22 antiviral assays taken together (summary statements). It is filed as cell-based. The protocol:
as §1

The test system of data set [14] is Vesicular stomatitis virus. In words: microbe, parasite or virus in culture. It is filed as cell-based. Particulars: read-out: MIC Vesicular stomatitis virus.
In data set [15] the test system is Vesicular stomatitis virus. In words: microbe, parasite or virus in culture. It counts as cell-based. Particulars: read-out: MIC Vesicular stomatitis virus. This is another data set of the same source.
In a further data set the test system is P 388 leukemia cells. Nature of the data set: inhibition of P 388 leukemia cells colony formation (in vitro antitumour). It counts as cell-based. Particulars: for IC50: Mus musculus, P388, read-out: ID50. The protocol: The antitumour activity of some eudistomin derivatives and the references antitumour drug was assessed in an invitro test with high predictive power for in-vivo activity. In this assay the inhibition of P 388 leukemia cells colony formation was determined at several concentrations of the test compounds as described in reference 8. The activity is expressed as an ID50 value, which indicates the dose causing 50% inhibition with respect to untreated control cells.

A short description of data set [16]: cytotoxicity in Vero cell cultures. Particulars: monkey, vero cells.
A short description of data set [17]: cytotoxicity in Hela cell cultures. Particulars: human, hela cells.
The nature of data set [18]: cytotoxicity in primary rabbit kidney (PRK) cell cultures. Particulars: primary rabbit kidney cells.
Data set [19] in a line: cytotoxicity in MDCK cell cultures. Particulars: dog.

Values after ≈ are worked out from the molar mass of the structure shown. “Also recorded” adds a separate entry of the source. Where two headings read alike, the source gives them in different places.

As to `NC(=O)c1ncn([C@@H]2O[C@H](CO)[C@@H](O)[C@H]2O)n1` [Ribavirin, ribavirin, reference compound], the MCC in “in vitro [1]” is ≥ 400 µg/mL; in “in vitro [2]”, > 200 µg/mL; in “in vitro [5]”, ≥ 400 µg/mL; in the data set “in vitro [12]” it was > 400 µg/mL. Besides, the MIC is 15 µg/mL (≈ 61.4 µM) in data set [3]; > 300 µg/mL against Coxsasckie virus B4; 70 µg/mL (≈ 287 µM) against Coxsackie virus B4; > 235 µg/mL with Sindbis virus; 135 µg/mL (≈ 553 µM) in the data set with parainfluenza-3 virus; 3 µg/mL (≈ 12.3 µM) in data set [4]. In addition, the MIC with Reovirus-1 is 125 µg/mL (≈ 512 µM); in the data set with Vaccinia virus it was 30 µg/mL (≈ 123 µM); in [6], > 200 µg/mL; in data set [7] it was > 200 µg/mL; in data set [8], > 200 µg/mL; in data set [9] it was > 200 µg/mL. The MIC in [10] is > 200 µg/mL; in [11], > 200 µg/mL; in the data set on Polio virus it was 110 µg/mL (≈ 450 µM); against Semliki forest virus, > 300 µg/mL; in data set [13] it was 15 µg/mL (≈ 61.4 µM).
For `N[C@@H]1CSCON2CCc3c([nH]c4ccccc34)[C@H]12` [Compound 63, (1S.13bS)-debromo Eudistomin L], the MCC in “in vitro [1]” is ≥ 25 µg/mL; in “in vitro [2]”, 8 µg/mL; in “in vitro [5]”, ≥ 4 µg/mL; in “in vitro [12]”, ≥ 4 µg/mL. For the same molecule, the “spectrum of antiviral activity” value in the data set with 22 antiviral test models is on record as “exceptionally wide range of activities; also recorded: very broad spectrum of antiviral activity”. The MIC was 0.8 µg/mL (≈ 2.91 µM) in data set [3]; 0.55 µg/mL (≈ 2 µM) with Coxsasckie virus B4; 0.55 µg/mL (≈ 2 µM) with Coxsackie virus B4; 0.35 µg/mL (≈ 1.27 µM) in the data set with Sindbis virus; > 0.6 µg/mL in the data set on parainfluenza-3 virus; 0.2 µg/mL (≈ 0.726 µM) in data set [14]. The MIC in data set [4] was 0.8 µg/mL (≈ 2.91 µM); in data set [15] it was 0.2 µg/mL (≈ 0.726 µM); in the data set on Reovirus-1, 0.4 µg/mL (≈ 1.45 µM); with Vaccinia virus it was 0.25 µg/mL (≈ 0.908 µM); in data set [6], 0.38 µg/mL (≈ 1.38 µM); in [7] it was 0.25 µg/mL (≈ 0.908 µM). The MIC in data set [8] came to 0.2 µg/mL (≈ 0.726 µM); in data set [9] it was 1.35 µg/mL (≈ 4.9 µM); in data set [10], 0.2 µg/mL (≈ 0.726 µM); in data set [11] it was 0.2 µg/mL (≈ 0.726 µM); in the data set on Polio virus it was 0.7 µg/mL (≈ 2.54 µM); in the data set on Semliki forest virus, 0.45 µg/mL (≈ 1.63 µM). In addition, the MIC in [13] is 0.8 µg/mL (≈ 2.91 µM). In addition, the IC50 with P 388 leukemia cells was found to be 42 µg/mL (≈ 153 µM).
On to `COc1cccc2c1C(=O)c1c(O)c3c(c(O)c1C2=O)C[C@@](O)(C(=O)CO)C[C@@H]3O[C@H]1C[C@H](N)[C@H](O)[C@H](C)O1` [adriamycin, reference compound], for which, in the data set with P 388 leukemia cells, the IC50 is 20 µg/mL (≈ 36.8 µM).
Turning to `COc1ccc2[nH]c3c(c2c1)CCN1OCSCC(N)C31` [Compound 67, (1S,13bS)-5-methoxy Eudistomin L], the MCC in the data set “in vitro [1]” is ≥ 2.5 µg/mL; in “in vitro [2]”, 0.8 µg/mL; in “in vitro [5]”, 2 µg/mL; in “in vitro [12]” it was ≥ 1 µg/mL. The “spectrum of antiviral activity” value with 22 antiviral test models was “exceptionally wide range of activities; also recorded: very broad spectrum of antiviral activity”. In addition, the MIC is > 0.32 µg/mL in data set [3]; 0.07 µg/mL (≈ 0.229 µM) with Coxsasckie virus B4; 0.045 µg/mL (≈ 0.147 µM) in the data set on Coxsackie virus B4; 0.045 µg/mL (≈ 0.147 µM) against Sindbis virus; 0.55 µg/mL (≈ 1.8 µM) in the data set with parainfluenza-3 virus; 0.15 µg/mL (≈ 0.491 µM) in [4]. Moreover, the MIC with Reovirus-1 came out at 0.045 µg/mL (≈ 0.147 µM); in the data set on Vaccinia virus it was 0.012 µg/mL (≈ 0.0393 µM); in data set [6] it was 0.023 µg/mL (≈ 0.0753 µM); in [7] it was 0.039 µg/mL (≈ 0.128 µM); in data set [8], 0.013 µg/mL (≈ 0.0426 µM); in [9], 0.045 µg/mL (≈ 0.147 µM). Moreover, the MIC in [10] is 0.014 µg/mL (≈ 0.0458 µM); in data set [11] it was 0.012 µg/mL (≈ 0.0393 µM); with Polio virus it was 0.045 µg/mL (≈ 0.147 µM); against Semliki forest virus, 0.11 µg/mL (≈ 0.36 µM); in data set [13], > 0.32 µg/mL. Moreover, the IC50 with P 388 leukemia cells turned out to be 3.8 µg/mL (≈ 12.4 µM).
For `c1ccc2c3c([nH]c2c1)C1CCSCON1CC3` (racemic) [Compound 50, (±)-Deamino, debromo Eudistomin L], the MCC is ≥ 40 µg/mL in data set [16], ≥ 30 µg/mL in data set [17], ≥ 120 µg/mL in data set [18] and 80 µg/mL in data set [19]. For the same molecule, the MIC is > 40 µg/mL in data set [3]; > 25 µg/mL against Coxsasckie virus B4; > 10 µg/mL with Coxsackie virus B4; > 10 µg/mL with Sindbis virus; > 10 µg/mL with parainfluenza-3 virus; > 8 µg/mL in data set [4]. For the same molecule, the MIC is > 10 µg/mL against Reovirus-1; > 70 µg/mL with Vaccinia virus; > 70 µg/mL in [6]; > 70 µg/mL in data set [7]; > 70 µg/mL in [8]; > 70 µg/mL in data set [9]. Moreover, the MIC is > 70 µg/mL in [10]; > 120 µg/mL in data set [11]; > 10 µg/mL with Polio virus; > 25 µg/mL with Semliki forest virus; > 40 µg/mL in data set [13]. Moreover, the ID50 entry in the data set with P 388 leukemia cells (dose causing 50% inhibition of colony formation vs untreated control cells) is reported as “no activity at 1.0”.
